Source: patent US5326882A, “Chemiluminescent 3-(substituted Adamant-2'-Ylidene) 1,2-dioxetanes” (Tropix, Inc., priority 1992, dated 1994)

Key:
[1] = target: T1, alkaline phosphatase (calf intestine; Biozyme) (Bos taurus, UniProt P19111); assay: Total dephosphorylation, chemiluminescence decay (Example XIII); format: biochemical; settings: 30° C., carbonate/bicarbonate buffer, listed as OH-Adamant-2'-ylidene (B isomer)
T1 construct: purchased Biozyme; host or cells: calf intestine
Description: A comparison of the total luminescence emission from AMPPD and from the corresponding 1,2-dioxetanes whose adamant-2'-ylidene groups are monosubstituted with hydroxy (A and B isomers), chloro and bromo groups was made by carrying out total dephosphorylation experiments on each of these compounds.
An aqueous solution of the 1,2-dioxetane (4.0 mm) in 0.05M sodium carbonate/sodium bicarbonate containing 1 mM magnesium chloride was prepared and then equilibrated at 30° C. Ten μl of a 7.64×10M aqueous solution of alkaline phosphatase (calf intestine; Biozyme) was then added, and the chemiluminescence from the resulting solution was recorded using a Turner Model 20E luminometer (Turner Instruments; Sunnyvale, Calif.).
The rates of chemiluminescence decay for each of the five compounds in question, expressed in relative light units (RLU's) per minute, are given in the following table.

alkaline phosphatase = alkaline phosphatase (Bos taurus, UniProt P19111); assay: Chemiluminescent signal and signal:background with enhancer polymers (Example XVII); format: biochemical
Sequence of alkaline phosphatase (P19111 20-506 limits assumed): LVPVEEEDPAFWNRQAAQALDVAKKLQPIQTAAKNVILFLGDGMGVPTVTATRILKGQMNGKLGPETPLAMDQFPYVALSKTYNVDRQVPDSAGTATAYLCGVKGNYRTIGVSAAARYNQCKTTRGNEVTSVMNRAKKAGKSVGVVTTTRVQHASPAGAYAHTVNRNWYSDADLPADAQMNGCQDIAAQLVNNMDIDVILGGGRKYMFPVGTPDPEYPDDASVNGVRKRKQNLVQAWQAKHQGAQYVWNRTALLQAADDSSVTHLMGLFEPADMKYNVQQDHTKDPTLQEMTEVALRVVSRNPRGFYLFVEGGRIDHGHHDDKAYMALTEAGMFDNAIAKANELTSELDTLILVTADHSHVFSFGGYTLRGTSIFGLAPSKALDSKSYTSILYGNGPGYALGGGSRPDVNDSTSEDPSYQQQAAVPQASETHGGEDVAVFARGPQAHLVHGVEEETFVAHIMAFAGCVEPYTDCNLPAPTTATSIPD
Description: Four sets of three tubes each, each tube in each set containing 450 μl of a 0.4 mM aqueous solution of one of the four 1,2-dioxetanes being compared in 0.1M diethanolamine containing 1 mM magnesium chloride, 0.02% sodium azide and 0.1% of the enhancer polymer, pH 10.0 (substrate buffer) were prepared and the background signal from each tube measured using a Berthold LB 952T luminometer (Berthold Instruments; Wildbad, Federal Republic of Germany).
Next, 50 μl of an aqueous solution, 2.83×10^-12 M of alkaline phosphatase in 0.1M diethanolamine containing 1 mM magnesium chloride, 0.02% sodium azide, pH 10.0, (final enzyme concentration 2.83×10^-13 M) was added to each tube and the chemiluminescent signals were measured in the luminometer at 5 and 20 minutes. The intensity of the chemiluminescent signals and the signal: background ratios obtained for each of the four 1,2-dioxetanes in the presence of the enhancer polymers are shown in Table III below.
The enhancer polymers used, and the symbols for such polymers used in Table III, were the following: […]

T1 sequence (P19111 20-506 limits assumed): as above

`COC1(c2cccc(OP(=O)(O)O)c2)OOC12C1CC3CC2CC(O)(C3)C1` (single isomer, unassigned) [B-OH-AMPPD, disodium 3-(4-methoxyspiro-[1,2-dioxetane-3,2'-(5'-hydroxy)tricyclo[3.3.1.1^3,7]decan]-4-yl)phenyl phosphate] was tested, and the “Total Decay Time” value [1] was 10 min, the “Decay Rate I” value ([1]; RLU's per minute) was 1.5 RLU's per minute and the S/N (alkaline phosphatase; polymer BAEDM, 5 min) was 25.4. For the same molecule, the SIGNAL (alkaline phosphatase; polymer BAEDM, 5 min) was 4101.3, the S/N (alkaline phosphatase; polymer BAEDM, 20 min) was 34.3 and the SIGNAL (alkaline phosphatase; polymer BAEDM, 20 min) was 5538.2. It also gave a S/N (alkaline phosphatase; polymer BAEDM, time 0) of 1.0, an SIGNAL (alkaline phosphatase; polymer BAEDM, time 0 (background, before enzyme)) of 161.4 and a S/N (alkaline phosphatase; polymer BZ, 5 min) of 18.8. The SIGNAL (alkaline phosphatase; polymer BZ, 5 min) was 2246.4, the S/N (alkaline phosphatase; polymer BZ, 20 min) was 22.4 and the SIGNAL (alkaline phosphatase; polymer BZ, 20 min) was 2669.2. For the same molecule, the S/N (alkaline phosphatase; polymer BZ, time 0) was 1.0, the SIGNAL (alkaline phosphatase; polymer BZ, time 0 (background, before enzyme)) was 119.4 and the S/N (alkaline phosphatase; polymer DAA TMQ, 5 min) was 40.3. The SIGNAL (alkaline phosphatase; polymer DAA TMQ, 5 min) was 5486.8, the S/N (alkaline phosphatase; polymer DAA TMQ, 20 min) was 49.0 and the SIGNAL (alkaline phosphatase; polymer DAA TMQ, 20 min) was 6670.3. The S/N (alkaline phosphatase; polymer DAA TMQ, time 0) was 1.0, the SIGNAL (alkaline phosphatase; polymer DAA TMQ, time 0 (background, before enzyme)) was 136.0 and the S/N (alkaline phosphatase; polymer DME(OH)B, 5 min) was 20.0. For the same molecule, the SIGNAL (alkaline phosphatase; polymer DME(OH)B, 5 min) was 2640.9, the S/N (alkaline phosphatase; polymer DME(OH)B, 20 min) was 30.2 and the SIGNAL (alkaline phosphatase; polymer DME(OH)B, 20 min) was 3990.6. The S/N (alkaline phosphatase; polymer DME(OH)B, time 0) was 1.0, the SIGNAL (alkaline phosphatase; polymer DME(OH)B, time 0 (background, before enzyme)) was 132.1 and the S/N (alkaline phosphatase; polymer DMEB, 5 min) was 35.7. It also gave an SIGNAL (alkaline phosphatase; polymer DMEB, 5 min) of 4451.6, a S/N (alkaline phosphatase; polymer DMEB, 20 min) of 48.3 and an SIGNAL (alkaline phosphatase; polymer DMEB, 20 min) of 6023.9. The S/N (alkaline phosphatase; polymer DMEB, time 0) was 1.0, the SIGNAL (alkaline phosphatase; polymer DMEB, time 0 (background, before enzyme)) was 124.6 and the S/N (alkaline phosphatase; polymer DMQ TEQ, 5 min) was 63.3. The SIGNAL (alkaline phosphatase; polymer DMQ TEQ, 5 min) was 9213.8, the S/N (alkaline phosphatase; polymer DMQ TEQ, 20 min) was 57.0 and the SIGNAL (alkaline phosphatase; polymer DMQ TEQ, 20 min) was 8288.0. It also gave a S/N (alkaline phosphatase; polymer DMQ TEQ, time 0) of 1.0, an SIGNAL (alkaline phosphatase; polymer DMQ TEQ, time 0 (background, before enzyme)) of 145.5 and a S/N (alkaline phosphatase; polymer MPB, 5 min) of 71.5. It also gave an SIGNAL (alkaline phosphatase; polymer MPB, 5 min) of 10021.3, a S/N (alkaline phosphatase; polymer MPB, 20 min) of 78.0 and an SIGNAL (alkaline phosphatase; polymer MPB, 20 min) of 10939.0. For the same molecule, the S/N (alkaline phosphatase; polymer MPB, time 0) was 1.0, the SIGNAL (alkaline phosphatase; polymer MPB, time 0 (background, before enzyme)) was 140.3 and the S/N (alkaline phosphatase; polymer NONE, 5 min) was 26.3. It also gave an SIGNAL (alkaline phosphatase; polymer NONE, 5 min, enzyme 2.83×10^-13 M) of 3314.8, a S/N (alkaline phosphatase; polymer NONE, 20 min) of 29.8 and an SIGNAL (alkaline phosphatase; polymer NONE, 20 min, enzyme 2.83×10^-13 M) of 3767.9. The S/N (alkaline phosphatase; polymer NONE, time 0) was 1.0, the SIGNAL (alkaline phosphatase; polymer NONE, time 0 (background, before enzyme)) was 126.3 and the S/N (alkaline phosphatase; polymer S/TMQ(1:2), 5 min) was 20.6. The SIGNAL (alkaline phosphatase; polymer S/TMQ(1:2), 5 min) was 3305.1, the S/N (alkaline phosphatase; polymer S/TMQ(1:2), 20 min) was 35.7 and the SIGNAL (alkaline phosphatase; polymer S/TMQ(1:2), 20 min) was 5722.3. The S/N (alkaline phosphatase; polymer S/TMQ(1:2), time 0) was 1.0, the SIGNAL (alkaline phosphatase; polymer S/TMQ(1:2), time 0 (background, before enzyme)) was 160.3 and the S/N (alkaline phosphatase; polymer S/TMQ(1:4), 5 min) was 35.6. The SIGNAL (alkaline phosphatase; polymer S/TMQ(1:4), 5 min) was 4775.3, the S/N (alkaline phosphatase; polymer S/TMQ(1:4), 20 min) was 53.1 and the SIGNAL (alkaline phosphatase; polymer S/TMQ(1:4), 20 min) was 7120.3. It also gave a S/N (alkaline phosphatase; polymer S/TMQ(1:4), time 0) of 1.0, an SIGNAL (alkaline phosphatase; polymer S/TMQ(1:4), time 0 (background, before enzyme)) of 134.0 and an SIGNAL (alkaline phosphatase; polymer SAPPHIRE (BDMQ), time 0 (background, before enzyme)) of 138.8. For the same molecule, the S/N (alkaline phosphatase; polymer SAPPHIRE, 5 min) was 78.6, the SIGNAL (alkaline phosphatase; polymer SAPPHIRE, 5 min) was 10908.4 and the S/N (alkaline phosphatase; polymer SAPPHIRE, 20 min) was 105.3. The SIGNAL (alkaline phosphatase; polymer SAPPHIRE, 20 min) was 14625.4, the S/N (alkaline phosphatase; polymer SAPPHIRE, time 0) was 1.0 and the S/N (alkaline phosphatase; polymer TBQ, 5 min) was 97.6. For the same molecule, the SIGNAL (alkaline phosphatase; polymer TBQ, 5 min) was 15508.5, the S/N (alkaline phosphatase; polymer TBQ, 20 min) was 131.1 and the SIGNAL (alkaline phosphatase; polymer TBQ, 20 min) was 20830.8. It also gave a S/N (alkaline phosphatase; polymer TBQ, time 0) of 1.0, an SIGNAL (alkaline phosphatase; polymer TBQ, time 0 (background, before enzyme)) of 158.9 and a S/N (alkaline phosphatase; polymer TEQ, 5 min) of 61.8. It also gave an SIGNAL (alkaline phosphatase; polymer TEQ, 5 min) of 8806.2, a S/N (alkaline phosphatase; polymer TEQ, 20 min) of 81.1 and an SIGNAL (alkaline phosphatase; polymer TEQ, 20 min) of 11563.4. For the same molecule, the S/N (alkaline phosphatase; polymer TEQ, time 0) was 1.0, the SIGNAL (alkaline phosphatase; polymer TEQ, time 0 (background, before enzyme)) was 142.6 and the S/N (alkaline phosphatase; polymer TMQ, 5 min) was 49.8. It also gave an SIGNAL (alkaline phosphatase; polymer TMQ, 5 min) of 6258.9, a S/N (alkaline phosphatase; polymer TMQ, 20 min) of 70.5 and an SIGNAL (alkaline phosphatase; polymer TMQ, 20 min) of 8857.8. The S/N (alkaline phosphatase; polymer TMQ, time 0) was 1.0 and the SIGNAL (alkaline phosphatase; polymer TMQ, time 0 (background, before enzyme)) was 125.7.
